Assays:
[1] = MRC5 cell proliferation counterscreen; format: cell-based; conditions: human, MRC5 cells, MRC5 EC50, cytotoxicity, human cell line
T. cruzi = T. cruzi cell proliferation assay; format: cell-based; conditions: Trypanosoma cruzi, read-out: T. cruzi EC50, mean ± SD; n = 4
T. brucei = T. brucei cell proliferation assay; format: cell-based, Trypanosoma brucei

| Structure (SMILES) | EC50 [1] | also measured |
| --- | --- | --- |
| O=c1nc(-c2ccccc2)c2cc(-c3ccc(F)cc3)ccc2[nH]1 [Compound 17] | > 50 µM | EC50 (T. cruzi): < 10 µM |
| O=c1nc(-c2ccccc2)c2cc(-c3ccc(C(F)(F)F)nc3)ccc2[nH]1 [Compound 10] | > 50 µM |  |
| CN1CCN(c2ccc3[nH]c(=O)nc(-c4ccccc4)c3c2)CC1 [Compound 36] | > 50 µM |  |
| O=c1nc(-c2ccccc2)c2ccc(-c3cncnc3)cc2[nH]1 [Compound 30] | > 50 µM |  |
| O=c1nc(-c2ccccc2)c2cc(-c3cc[nH]n3)ccc2[nH]1 [Compound 24] | > 50 µM |  |
| O=c1nc(-c2ccccc2)c2ccc(-c3cccc(N4CCOCC4)c3)cc2[nH]1 [Compound 31] | > 50 µM |  |
| O=c1nc(-c2ccccc2)c2cc(N3CCOCC3)ccc2[nH]1 [Compound 38] | > 50 µM |  |
| O=c1nc(-c2ccccc2)c2cc(-c3ccccc3F)ccc2[nH]1 [Compound 15] | > 50 µM | EC50 (T. cruzi): < 10 µM |
| Cn1cc(-c2ccc3[nH]c(=O)nc(-c4ccccc4)c3c2)cn1 [Compound 26] | > 50 µM |  |
| O=c1nc(-c2ccccc2)c2cc(-c3cncnc3)ccc2[nH]1 [Compound 22] | > 50 µM |  |
| Cc1noc(C)c1-c1ccc2[nH]c(=O)nc(-c3ccccc3)c2c1 [Compound 23] | > 50 µM |  |
| O=c1nc(-c2ccccc2)c2cc(-c3ccc(N4CCCC4)nc3)ccc2[nH]1 [Compound 12] | > 50 µM | EC50 (T. cruzi): < 10 µM |
| Cc1ccccc1-c1nc(=O)[nH]c2ccc(-c3cc[nH]n3)cc12 [Compound 39] | > 50 µM | EC50 (T. cruzi): < 10 µM |
| Cn1ccc(-c2cccc3[nH]c(=O)nc(-c4ccccc4)c23)n1 [Compound 33] | > 50 µM |  |
| N#Cc1ccc(-c2cccc3[nH]c(=O)nc(-c4ccccc4)c23)cc1 [Compound 34] | > 50 µM |  |
| O=c1nc(-c2ccccc2)c2cc(-c3cccc(N4CCOCC4)c3)ccc2[nH]1 [Compound 20] | > 50 µM |  |
| Cn1nccc1-c1ccc2[nH]c(=O)nc(-c3ccccc3)c2c1 [Compound 27] | > 50 µM |  |
| O=c1nc(-c2ccccc2)c2ccc(-c3ccncc3)cc2[nH]1 [Compound 28] | > 50 µM |  |
| Cc1ccncc1-c1ccc2[nH]c(=O)nc(-c3ccccc3)c2c1 [Compound 8] | > 50 µM | EC50 (T. cruzi): < 10 µM |
| COc1ccccc1-c1nc(=O)[nH]c2ccc(-c3cc[nH]n3)cc12 [Compound 40] | > 50 µM |  |

| Structure (SMILES) | EC50 [1] | also measured |
| --- | --- | --- |
| O=c1nc(-c2ccccc2)c2cc(-c3cccnc3)ccc2[nH]1 [Compound 6] | > 50 µM |  |
| O=c1nc(-c2ccccc2)c2cc(-c3ccccc3)ccc2[nH]1 [Compound 14] | > 50 µM | fold loss of potency in T. brucei assay (T. brucei; relative to 1): ~ 2.5 fold |
| O=c1nc(-c2ccccc2)c2cc(-c3cccc(F)c3)ccc2[nH]1 [Compound 16] | > 50 µM | EC50 (T. cruzi): < 10 µM |
| N#Cc1ccc(-c2ccc3[nH]c(=O)nc(-c4ccccc4)c3c2)cc1 [Compound 18] | > 50 µM |  |
| Cc1ccc(-c2ccc3[nH]c(=O)nc(-c4ccccc4)c3c2)cn1 [Compound 7] | > 50 µM |  |
| CNC(=O)c1cccc(-c2ccc3[nH]c(=O)nc(-c4ccccc4)c3c2)c1 [Compound 19] | > 50 µM |  |
| O=c1nc(C2CCC2)c2cc(-c3cc[nH]n3)ccc2[nH]1 [Compound 42] | > 50 µM | fold loss of potency in T. brucei assay (T. brucei; relative to C4-phenyl analog 24): ~6 fold |
| Cc1ccc2[nH]c(=O)nc(-c3ccccc3)c2c1 [Compound 35] | > 50 µM |  |
| O=c1nc(-c2ccccc2)c2ccc(-c3ccc(F)cc3)cc2[nH]1 [Compound 32] | > 50 µM |  |
| Cc1cncc(-c2ccc3[nH]c(=O)nc(-c4ccccc4)c3c2)c1 [Compound 9] | > 50 µM | EC50 (T. cruzi): < 10 µM |
| O=c1nc(C2CCCCC2)c2cc(-c3cc[nH]n3)ccc2[nH]1 [Compound 41] | > 50 µM |  |
| O=c1nc(-c2ccccc2)c2cc(-c3cn[nH]c3)ccc2[nH]1 [Compound 25] |  | EC50 (T. cruzi): < 10 µM |
| O=c1nc(-c2ccccc2)c2cc(-c3ccc(N4CCOCC4)cc3)ccc2[nH]1 [Compound 21] |  | EC50 (T. cruzi): < 10 µM |
| O=c1nc(-c2ccccc2)c2cc(N3CCNCC3)ccc2[nH]1 [Compound 37] | > 25 µM |  |
| O=c1nc(-c2ccccc2)c2cc(-c3ccncc3)ccc2[nH]1 [Compound 1] | > 50 µM |  |
| CN(C)c1ccc(-c2ccc3[nH]c(=O)nc(-c4ccccc4)c3c2)cn1 [Compound 11] | > 50 µM |  |
| O=c1nc(-c2ccccc2)c2cc(-c3cnc4ccccc4c3)ccc2[nH]1 [Compound 13] | > 50 µM | EC50 (T. cruzi): < 10 µM |
| Cc1cc(-c2ccc3[nH]c(=O)nc(-c4ccccc4)c3c2)ccn1 [Compound 5] | > 50 µM | fold loss of potency in T. brucei assay (T. brucei; relative to 1): < 3 fold |
| O=c1nc(-c2ccccc2)c2ccc(-c3cccnc3)cc2[nH]1 [Compound 29] | > 50 µM |  |
